Results published in ChEMBL document CHEMBL3763124, “N-Benzylbenzamides: A Novel Merged Scaffold for Orally Available Dual Soluble Epoxide Hydrolase/Peroxisome Proliferator-Activated Receptor γ Modulators” (J Med Chem, 2016).
In brackets after ≈: the same amount, converted by molar mass. Activity calls are given as the source filed them. The calls are words filed in the database; no cut-off is given here.

Legend:
[1] = biological target: T1, Bifunctional epoxide hydrolase 2 (Homo sapiens, UniProt P34913); assay: Inhibition of human recombinant sEH using PHOME as substrate preincubated for 30 mins followed by substrate addition measured for 30 mins by fluorescence-based assay
T1 sequence (P34913 whole entry): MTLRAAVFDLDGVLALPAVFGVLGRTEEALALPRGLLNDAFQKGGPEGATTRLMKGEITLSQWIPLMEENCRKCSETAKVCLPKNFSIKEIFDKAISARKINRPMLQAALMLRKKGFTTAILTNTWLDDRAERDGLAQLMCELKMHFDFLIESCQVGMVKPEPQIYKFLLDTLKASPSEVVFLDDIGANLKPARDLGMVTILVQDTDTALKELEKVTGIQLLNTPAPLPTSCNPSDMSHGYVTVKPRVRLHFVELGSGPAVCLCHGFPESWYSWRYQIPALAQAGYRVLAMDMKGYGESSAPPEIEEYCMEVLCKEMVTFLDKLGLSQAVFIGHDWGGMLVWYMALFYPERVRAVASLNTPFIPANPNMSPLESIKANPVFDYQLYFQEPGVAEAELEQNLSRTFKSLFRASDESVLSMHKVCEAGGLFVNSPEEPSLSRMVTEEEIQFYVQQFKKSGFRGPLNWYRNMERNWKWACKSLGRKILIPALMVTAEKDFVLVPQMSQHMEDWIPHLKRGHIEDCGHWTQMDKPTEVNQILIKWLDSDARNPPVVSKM

[2] = biological target: T2, Peroxisome proliferator-activated receptor delta (Homo sapiens, UniProt Q03181); assay: Transactivation of human PPARdelta expressed in African green monkey COS7 cells incubated overnight by dual-glo luciferase reporter gene assay; format: cell-based; settings: cos-7
T2 sequence (Q03181 whole entry): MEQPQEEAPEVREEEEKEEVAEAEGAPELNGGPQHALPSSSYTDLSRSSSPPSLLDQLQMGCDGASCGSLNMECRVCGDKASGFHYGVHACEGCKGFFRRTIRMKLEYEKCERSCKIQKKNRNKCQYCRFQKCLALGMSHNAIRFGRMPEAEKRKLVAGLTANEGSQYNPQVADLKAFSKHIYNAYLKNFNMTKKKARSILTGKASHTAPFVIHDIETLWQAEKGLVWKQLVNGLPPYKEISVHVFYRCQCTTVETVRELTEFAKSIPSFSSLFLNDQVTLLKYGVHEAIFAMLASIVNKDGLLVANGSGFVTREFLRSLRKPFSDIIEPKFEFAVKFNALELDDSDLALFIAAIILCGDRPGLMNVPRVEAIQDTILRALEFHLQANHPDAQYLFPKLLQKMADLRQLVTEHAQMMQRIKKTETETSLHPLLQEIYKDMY

[3] = biological target: T3, Peroxisome proliferator-activated receptor alpha (Homo sapiens, UniProt Q07869)
T3 sequence (Q07869 whole entry): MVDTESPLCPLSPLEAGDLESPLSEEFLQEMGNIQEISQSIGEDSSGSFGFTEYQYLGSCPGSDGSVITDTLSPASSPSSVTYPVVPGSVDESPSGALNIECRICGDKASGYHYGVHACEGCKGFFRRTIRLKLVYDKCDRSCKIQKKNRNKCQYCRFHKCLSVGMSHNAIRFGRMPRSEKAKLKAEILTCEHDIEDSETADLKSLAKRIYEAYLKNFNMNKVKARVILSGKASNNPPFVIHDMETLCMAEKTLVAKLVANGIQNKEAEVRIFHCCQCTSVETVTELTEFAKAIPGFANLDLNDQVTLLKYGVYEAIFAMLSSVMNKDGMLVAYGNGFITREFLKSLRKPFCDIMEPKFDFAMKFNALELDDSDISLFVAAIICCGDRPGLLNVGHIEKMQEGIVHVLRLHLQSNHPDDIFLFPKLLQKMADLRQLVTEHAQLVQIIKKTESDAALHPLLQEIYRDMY
Description: (§1) Transactivation of human PPARalpha expressed in African green monkey COS7 cells incubated overnight by dual-glo luciferase reporter gene assay

[4] = biological target: T4, Peroxisome proliferator-activated receptor delta (Homo sapiens) (UniProt Q03181); assay: Transactivation of human PPARdelta expressed in African green monkey COS7 cells at 10 uM incubated overnight by dual-glo luciferase reporter assay; format: cell-based; settings: COS-7
T4 sequence (whole entry): T2 sequence (Q03181 whole entry)

[5] = biological target: T5, Peroxisome proliferator-activated receptor alpha (Homo sapiens) (UniProt Q07869); assay: Transactivation of human PPARalpha expressed in African green monkey COS7 cells incubated overnight by dual-glo luciferase reporter assay relative to GW7647; format: cell-based; settings: COS-7
T5 sequence (whole entry): T3 sequence (Q07869 whole entry)

[6] = biological target: T6, Peroxisome proliferator-activated receptor gamma (Homo sapiens, UniProt P37231); settings: cos-7
T6 sequence (P37231 whole entry): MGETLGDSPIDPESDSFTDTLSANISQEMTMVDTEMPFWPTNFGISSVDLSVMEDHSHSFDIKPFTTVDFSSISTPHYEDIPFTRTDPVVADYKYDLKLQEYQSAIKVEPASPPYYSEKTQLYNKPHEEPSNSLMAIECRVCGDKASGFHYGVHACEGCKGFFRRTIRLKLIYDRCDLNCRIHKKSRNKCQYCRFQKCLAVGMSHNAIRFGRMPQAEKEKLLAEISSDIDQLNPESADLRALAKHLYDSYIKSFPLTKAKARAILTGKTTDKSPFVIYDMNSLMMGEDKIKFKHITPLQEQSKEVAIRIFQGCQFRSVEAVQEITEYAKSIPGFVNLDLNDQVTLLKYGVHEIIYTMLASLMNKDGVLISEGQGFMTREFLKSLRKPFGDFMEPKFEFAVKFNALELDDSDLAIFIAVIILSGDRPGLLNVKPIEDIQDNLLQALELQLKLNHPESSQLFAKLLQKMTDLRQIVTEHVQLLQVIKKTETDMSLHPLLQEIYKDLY
Description: Transactivation of human PPARgamma expressed in African green monkey COS7 cells incubated overnight by dual-glo luciferase reporter gene assay

[7] = biological target: T3, Peroxisome proliferator-activated receptor alpha; settings: cos-7
Description: as §1

[8] = Solubility of the compound in water by microplate reader analysis; format: physicochemical
[9] = biological target: T7, Peroxisome proliferator-activated receptor gamma (Homo sapiens) (UniProt P37231); assay: Transactivation of human PPARgamma expressed in African green monkey COS7 cells at 10 uM incubated overnight by dual-glo luciferase reporter gene assay; format: cell-based; settings: COS-7
T7 sequence (whole entry): T6 sequence (P37231 whole entry)

HepG2 = assay: Cytotoxicity against human HepG2 cells assessed as cell viability up to 30 uM after 48 hrs by WST-1 assay; format: cell-based; settings: hepg2, 48 h
[10] = biological target: T8, Peroxisome proliferator-activated receptor gamma (Mus musculus) (UniProt P37238); assay: Transactivation of PPARgamma in mouse 3T3L1 cells assessed as increase in […] expression by qPCR method; format: cell-based; settings: 3T3-L1
T8 sequence (whole entry): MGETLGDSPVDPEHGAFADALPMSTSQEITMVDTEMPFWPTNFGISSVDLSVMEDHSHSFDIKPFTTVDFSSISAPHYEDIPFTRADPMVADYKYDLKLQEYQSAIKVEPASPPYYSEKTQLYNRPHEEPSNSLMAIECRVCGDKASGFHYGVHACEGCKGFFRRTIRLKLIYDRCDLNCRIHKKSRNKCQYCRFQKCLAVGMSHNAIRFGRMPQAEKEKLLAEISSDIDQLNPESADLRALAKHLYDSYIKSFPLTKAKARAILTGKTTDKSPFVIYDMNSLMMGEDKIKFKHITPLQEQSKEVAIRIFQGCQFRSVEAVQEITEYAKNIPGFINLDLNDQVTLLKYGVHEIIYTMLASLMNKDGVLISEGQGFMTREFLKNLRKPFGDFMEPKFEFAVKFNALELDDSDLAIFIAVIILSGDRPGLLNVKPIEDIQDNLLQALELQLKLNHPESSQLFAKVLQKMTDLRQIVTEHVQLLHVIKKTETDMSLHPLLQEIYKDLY

[11] = biological target: T7, Peroxisome proliferator-activated receptor gamma (Homo sapiens); assay: Transactivation of PPARgamma in human primary preadipocytes assessed as increase in […] expression at 10 uM by qPCR method; format: cell-based
[12] = biological target: T8, Peroxisome proliferator-activated receptor gamma (Mus musculus); assay: Transactivation of PPARgamma in mouse 3T3L1 cells assessed as increase in adiponectin expression by qPCR method; format: cell-based; settings: 3T3-L1
[13] = biological target: T8, Peroxisome proliferator-activated receptor gamma (Mus musculus); assay: Transactivation of PPARgamma in mouse 3T3L1 cells assessed as increase in LPL expression by qPCR method; format: cell-based; settings: 3T3-L1
[14] = biological target: T7, Peroxisome proliferator-activated receptor gamma (Homo sapiens); assay: Transactivation of PPARgamma in human primary preadipocytes assessed as increase in FABP4 expression at 10 uM by qPCR method; format: cell-based
[15] = biological target: T7, Peroxisome proliferator-activated receptor gamma (Homo sapiens); assay: Transactivation of PPARgamma in human primary preadipocytes assessed as increase in LPL expression at 10 uM by qPCR method; format: cell-based
[16] = biological target: T8, Peroxisome proliferator-activated receptor gamma (Mus musculus); assay: Transactivation of PPARgamma in mouse 3T3L1 cells assessed as adipocyte differentiation by Oil Red O staining-based assay; format: cell-based; settings: 3T3-L1
[17] = Apparent oral clearance in RjOrl:Swiss (CD-1) mouse plasma at 30 mg/kg; format: ADME, organism-based
[18] = biological target: T7, Peroxisome proliferator-activated receptor gamma (Homo sapiens); assay: Transactivation of PPARgamma in human primary preadipocytes assessed as increase in adiponectin expression at 10 uM by qPCR method; format: cell-based
Mus musculus = assay: Drug level in RjOrl:Swiss (CD-1) mouse plasma treated with Ethyl 2-Ethyl 3-[4-(N-((2-trifluoromethyl)benzyl)benzamide)]propanoate at 30 mg/kg, po administered as single dose; format: ADME, organism-based; settings: in vivo
[19] = biological target: T8, Peroxisome proliferator-activated receptor gamma (Mus musculus); assay: Transactivation of PPARgamma in mouse 3T3L1 cells assessed as increase in FABP4 expression by qPCR method; format: cell-based; settings: 3T3-L1
[20] = biological target: T7, Peroxisome proliferator-activated receptor gamma (Homo sapiens); assay: Transactivation of PPARgamma in human primary preadipocytes assessed as adipocyte differentiation by Oil Red O staining-based assay; format: cell-based

In the case of CCC(Cc1ccc(C(=O)NCc2ccc(C(F)(F)F)cc2)cc1)C(=O)O (stereo not drawn), the IC50 [1] is reported as 7.2 µM, the EC50 [2] is reported as “Not Active” and the EC50 [3] is reported as 7 µM.

Work on CCC(Cc1ccc(C(=O)NCc2ccc(Oc3ccccc3)cc2)cc1)C(=O)O (stereo not drawn) yielded an IC50 [1] of 12 µM, an Emax [4] of 20% and an EC50 [3] of 0.9 µM.

In the case of CCOC(=O)C(CC)Cc1ccc(C(=O)NCc2ccc(Oc3ccccc3)cc2)cc1 (stereo not drawn), the EC50 [2] is reported as “Not Active”, the Emax [5] is reported as 110% and the EC50 [3] is reported as 4 µM.

For O=C(NCc1ccccc1C(F)(F)F)c1ccc(-c2nnn[nH]2)cc1, the Emax [4] was “inactive”, the EC50 [2] was “Not Active” and the EC50 [6] was “Not Active”. The EC50 [7] was “Not Active”, the Emax [5] was “inactive” and the solubility [8] was 375 µM (≈ 130 µg/mL).

With CON(C)C(=O)C1CC1c1ccc(C(=O)NCc2ccccc2C(F)(F)F)cc1 (stereo not drawn) the Emax [4] was “inactive”, the EC50 [2] was “Not Active” and the EC50 [7] was “Not Active”. The Emax [5] was “inactive” and the Activity [9] was 30%.

For CCC(Cc1ccc(C(=O)NCc2ccccc2C(F)(F)F)cc1)C(=O)O (stereo not drawn), the Activity (HepG2) was “Non-toxic”, the Activity [10] was “Dose-dependent effect” and the Emax [4] was “inactive”. For the same compound, the Activity [11] was “Active”, the EC50 [2] was “Not Active” and the Activity [12] was “Dose-dependent effect”. For the same compound, the Activity [13] was “Dose-dependent effect”, the Activity [14] was “Active” and the EC50 [7] was “Not Active”. The Emax [5] was “inactive”, the Activity [15] was “Active” and the solubility [8] was 75 µM (≈ 28.5 µg/mL). For the same compound, the Activity [16] was “Dose-dependent effect”, the CL/F [17] was 31.7 mL/min/kg and the Activity [18] was “Active”. For the same compound, the Drug metabolism (Mus musculus) was “metabolite_detected”, the Activity [19] was “Dose-dependent effect” and the Activity [20] was “Dose-dependent effect”.
